Experimental data from patent US6355799B1, “Substituted benzene compounds, process for their preparation, and herbicidal and defoliant compositions containing them” (ISK Americas Incorporated, priority 1997, dated 2002).

Legend:
Type in all cases: in vivo
[1] = system: field corn (Zea mays L., var. Dekalb 535, CORN); assay: Pre-emerge test, crop safety; conditions: rating scale 0-100, 14 days after application
Outline: (§1)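 Sandy loam pots; pre-emerge: sown 1 d pre-spray, surface-watered after, then bottom-watered. Post-emerge: sown 8–21 d before, 2–3 leaf stage, + 0.25% v/v NIS, bottom-watered. Acetone, 187 l/ha track spray, 15–1000 g ai/ha. 0–100 injury score, day 14.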

[2] = system: upland rice (Oryza sp., var. Tebonnet, RICE); assay: Pre-emerge test, crop safety; conditions: rating scale 0-100, 14 days after application
Outline: as §1

[3] = system: common ragweed (Ambrosia artemisizfolia L., AMBEL); assay: Post-emerge test, greenhouse herbicide activity screening; conditions: rating scale 0-100 (0 no damage, 100 complete death), 14 days after application
Outline: (§2)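 Compounds in acetone were track-sprayed at 15–1000 g ai/ha: pre-emergence onto soil sown the previous day, then top-watered to incorporate and later bottom-watered; post-emergence onto 2–3 leaf plants with 0.25% v/v surfactant, bottom-watered only. Ratings on a 0–100 phytotoxicity scale were taken at day 14.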

[4] = system: ivyleaf morningglory (Ipomoea hederacea, IPOHE); assay: as above; conditions: rating scale 0-100 (0 no damage, 100 complete death), 14 days after application
Outline: as §2

[5] = system: velvetleaf (Abutilon theophrasti, ABUTH); assay: as above; conditions: rating scale 0-100 (0 no damage, 100 complete death), 14 days after application
Outline: as §2

[6] = system: johnsongrass (Sorghum halepense, SORHA); assay: as above; conditions: rating scale 0-100 (0 no damage, 100 complete death), 14 days after application
Outline: as §2

[7] = system: green foxtail (Setaria viridis, SETVI); assay: as above; conditions: rating scale 0-100 (0 no damage, 100 complete death), 14 days after application
Outline: as §2

[8] = system: lambsquarters (Chenopodium album, CHEAL); assay: as above; conditions: rating scale 0-100 (0 no damage, 100 complete death), 14 days after application
Outline: as §2

[9] = system: barnyardgrass (Echinochloa crus-galli, ECHCG); assay: as above; conditions: rating scale 0-100 (0 no damage, 100 complete death), 14 days after application
Outline: as §2

[10] = system: large crabgrass (Digitaria sanguinalis, DIGSA); assay: as above; conditions: rating scale 0-100 (0 no damage, 100 complete death), 14 days after application
Outline: as §2

[11] = system: redroot pigweed (Amaranthus retroflexus, AMARE); assay: as above; conditions: rating scale 0-100 (0 no damage, 100 complete death), 14 days after application
Outline: as §2

[12] = system: sicklepod (Cassia obtusifolia, CASOB); assay: as above; conditions: rating scale 0-100 (0 no damage, 100 complete death), 14 days after application
Outline: as §2

[13] = system: field corn (Zea mays L., var. Dekalb 535, CORN); assay: Post-emerge test, crop safety; conditions: rating scale 0-100 (0 no damage, 100 complete death), 14 days after application
Outline: (§3)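 Compounds in acetone were track-sprayed at 187 l/ha, 15–1000 g ai/ha, onto sandy loam pots. Pre-emerge seeds were sown one day before spraying, with surface watering afterwards. Post-emerge plants were at the 2–3 leaf stage and sprayed with 0.25% v/v non-ionic surfactant. Injury was rated 0–100 at 14 days.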

[14] = system: upland rice (Oryza sp., var. Tebonnet, RICE); assay: Post-emerge test, crop safety; conditions: rating scale 0-100 (0 no damage, 100 complete death), 14 days after application
Outline: as §3

[15] = system: common ragweed (Ambrosia artemisizfolia L., AMBEL); assay: Pre-emerge test, greenhouse herbicide activity screening; conditions: rating scale 0-100, 14 days after application
Outline: as §3

[16] = system: ivyleaf morningglory (Ipomoea hederacea, IPOHE); assay: as above; conditions: rating scale 0-100, 14 days after application
Outline: as §3

[17] = system: velvetleaf (Abutilon theophrasti, ABUTH); assay: as above; conditions: rating scale 0-100, 14 days after application
Outline: as §3

[18] = system: johnsongrass (Sorghum halepense, SORHA); assay: as above; conditions: rating scale 0-100, 14 days after application
Outline: as §3

[19] = system: green foxtail (Setaria viridis, SETVI); assay: as above; conditions: rating scale 0-100, 14 days after application
Outline: as §3

[20] = system: lambsquarters (Chenopodium album, CHEAL); assay: as above; conditions: rating scale 0-100, 14 days after application
Outline: as §3

[21] = system: barnyardgrass (Echinochloa crus-galli, ECHCG); assay: as above; conditions: rating scale 0-100, 14 days after application
Outline: as §3

[22] = system: large crabgrass (Digitaria sanguinalis, DIGSA); assay: as above; conditions: rating scale 0-100, 14 days after application
Outline: as §3

[23] = system: sicklepod (Cassia obtusifolia, CASOB); assay: as above; conditions: rating scale 0-100, 14 days after application
Outline: as §3

[24] = system: redroot pigweed (Amaranthus retroflexus, AMARE); assay: as above; conditions: rating scale 0-100, 14 days after application
Outline: as §3

CCCCOC(=O)C(C)(Cl)Cc1c(OC)c(Cl)cc(F)c1-n1c(=O)cc(C(F)(F)F)n(C)c1=O (stereo not drawn) [14-36]
75: Pre-emerge herbicidal activity, phytotoxicity rating CHEAL ([20]; 63 g ai/ha) | Pre-emerge herbicidal activity, phytotoxicity rating AMARE ([24]; 63 g ai/ha)
0: Pre-emerge phytotoxicity rating, crop damage CORN ([1]; 63 g ai/ha) | Pre-emerge herbicidal activity, phytotoxicity rating IPOHE ([16]; 63 g ai/ha) | Pre-emerge herbicidal activity, phytotoxicity rating IPOHE ([16]; 250 g ai/ha) | Pre-emerge herbicidal activity, phytotoxicity rating SORHA ([18]; 63 g ai/ha) | Pre-emerge herbicidal activity, phytotoxicity rating ECHCG ([21]; 63 g ai/ha) | Pre-emerge herbicidal activity, phytotoxicity rating CASOB ([23]; 63 g ai/ha) | Pre-emerge herbicidal activity, phytotoxicity rating CASOB ([23]; 250 g ai/ha)
100: Post-emerge Herbicidal Activity, phytotoxicity rating AMBEL ([3]; Rate 63 g ai/ha) | Post-emerge Herbicidal Activity, phytotoxicity rating ABUTH ([5]; Rate 250 g ai/ha) | Post-emerge Herbicidal Activity, phytotoxicity rating CHEAL ([8]; Rate 250 g ai/ha) | Post-emerge Herbicidal Activity, phytotoxicity rating ECHCG ([9]; Rate 250 g ai/ha) | Post-emerge Herbicidal Activity, phytotoxicity rating AMARE ([11]; Rate 63 g ai/ha) | Post-emerge Herbicidal Activity, phytotoxicity rating AMARE ([11]; Rate 250 g ai/ha) | Pre-emerge herbicidal activity, phytotoxicity rating ABUTH ([17]; 63 g ai/ha) | Pre-emerge herbicidal activity, phytotoxicity rating ABUTH ([17]; 250 g ai/ha) | Pre-emerge herbicidal activity, phytotoxicity rating CHEAL ([20]; 250 g ai/ha) | Pre-emerge herbicidal activity, phytotoxicity rating AMARE ([24]; 250 g ai/ha)
90: Pre-emerge herbicidal activity, phytotoxicity rating ECHCG ([21]; 250 g ai/ha)
30: Post-emerge Herbicidal Activity, phytotoxicity rating IPOHE ([4]; Rate 63 g ai/ha) | Pre-emerge herbicidal activity, phytotoxicity rating SORHA ([18]; 250 g ai/ha) | Pre-emerge herbicidal activity, phytotoxicity rating DIGSA ([22]; 63 g ai/ha)
95: Post-emerge Herbicidal Activity, phytotoxicity rating AMBEL ([3]; Rate 250 g ai/ha) | Post-emerge Herbicidal Activity, phytotoxicity rating ABUTH ([5]; Rate 63 g ai/ha) | Post-emerge phytotoxicity rating CORN (crop damage) ([13]; Rate 63 g ai/ha) | Post-emerge phytotoxicity rating CORN (crop damage) ([13]; Rate 250 g ai/ha) | Pre-emerge herbicidal activity, phytotoxicity rating SETVI ([19]; 250 g ai/ha) | Pre-emerge herbicidal activity, phytotoxicity rating DIGSA ([22]; 250 g ai/ha)
35: Post-emerge phytotoxicity rating RICE (crop damage) ([14]; Rate 63 g ai/ha)
70: Pre-emerge phytotoxicity rating, crop damage RICE ([2]; 250 g ai/ha) | Post-emerge Herbicidal Activity, phytotoxicity rating IPOHE ([4]; Rate 250 g ai/ha)
65: Post-emerge Herbicidal Activity, phytotoxicity rating DIGSA ([10]; Rate 250 g ai/ha)
20: Post-emerge Herbicidal Activity, phytotoxicity rating SORHA ([6]; Rate 63 g ai/ha) | Post-emerge Herbicidal Activity, phytotoxicity rating CASOB ([12]; Rate 63 g ai/ha)
99: Post-emerge Herbicidal Activity, phytotoxicity rating SETVI ([7]; Rate 250 g ai/ha) | Post-emerge Herbicidal Activity, phytotoxicity rating CHEAL ([8]; Rate 63 g ai/ha) | Post-emerge Herbicidal Activity, phytotoxicity rating ECHCG ([9]; Rate 63 g ai/ha)
40: Post-emerge Herbicidal Activity, phytotoxicity rating SORHA ([6]; Rate 250 g ai/ha) | Post-emerge Herbicidal Activity, phytotoxicity rating DIGSA ([10]; Rate 63 g ai/ha) | Post-emerge Herbicidal Activity, phytotoxicity rating CASOB ([12]; Rate 250 g ai/ha)
85: Post-emerge Herbicidal Activity, phytotoxicity rating SETVI ([7]; Rate 63 g ai/ha)
80: Pre-emerge herbicidal activity, phytotoxicity rating AMBEL ([15]; 250 g ai/ha)
10: Pre-emerge phytotoxicity rating, crop damage CORN ([1]; 250 g ai/ha) | Pre-emerge phytotoxicity rating, crop damage RICE ([2]; 63 g ai/ha) | Pre-emerge herbicidal activity, phytotoxicity rating AMBEL ([15]; 63 g ai/ha) | Pre-emerge herbicidal activity, phytotoxicity rating SETVI ([19]; 63 g ai/ha)
60: Post-emerge phytotoxicity rating RICE (crop damage) ([14]; Rate 250 g ai/ha)
